One experiment concerns COLO 205. The experiment is described as follows: NCI SRB growth inhibition (single dose 10 µM / five-dose). Type of experiment: cell-based, human. Particulars: Homo sapiens; for inhibition at 10 µM: COLO 205 (Colon cancer), read-out: GI%; for GI50: COLO 205, Colon cancer, five-dose. The method in brief:
(§1)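 SRB protein stain of fixed cells; compounds tested at one dose (10 µM) or five serial dilutions (10-fold or ½ log), diluted from DMSO stock. Cells plated 24 h before dosing, with a time-zero plate fixed in TCA. Percent growth derived from Tz, control and test absorbances; TGI taken where Ti = Tz.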

Another experiment deals with DU-145. The experiment is described as above. Particulars: Homo sapiens; for inhibition at 10 µM: DU-145 (Prostate cancer), read-out: GI%; for GI50: DU-145, Prostate cancer, five-dose. Type of experiment: cell-based, human. The method in brief:
as §1

The test system of the next experiment is MDA-MB-468. Described as above. In kind it is cell-based, human. Particulars: Homo sapiens; for inhibition at 10 µM: MDA-MB-468 (Breast cancer), read-out: GI%; for GI50: MDA-MB-468, Breast cancer, five-dose. The method in brief:
as §1

The subject of a further experiment is KM12. Described as above. In kind it is cell-based, human. Particulars: Homo sapiens; for inhibition at 10 µM: KM12 (Colon cancer), read-out: GI%; for GI50: KM12, Colon cancer, five-dose. The method in brief:
as §1

For a further experiment, the system named is HOP-92. The experiment is described as above. Conditions: Homo sapiens; for inhibition at 10 µM: HOP-92 (Non-small cell lung cancer), read-out: GI%; for GI50: HOP-92, Non-small cell lung cancer, five-dose. In kind it is cell-based, human. The method in brief: as §1
Another experiment deals with U251. The description is as above. In kind it is cell-based, human. Conditions: Homo sapiens, U-251; for inhibition at 10 µM: U251 (CNS cancer), read-out: GI%; for GI50: U251, CNS cancer, five-dose. In outline: as §1
The test system of another experiment is NCI-H460. The description is as above. In kind it is cell-based, human. Particulars: Homo sapiens; for inhibition at 10 µM: NCI-H460 (Non-small cell lung cancer), read-out: GI%; for GI50: NCI-H460, Non-small cell lung cancer, five-dose. In outline: as §1
Another experiment has as its system NCI-H522. The description is as above. Type of experiment: cell-based, human. Particulars: Homo sapiens; for inhibition at 10 µM: NCI-H522 (Non-small cell lung cancer), read-out: GI%; for GI50: NCI-H522, Non-small cell lung cancer, five-dose. The method in brief: as §1
Another experiment relates to SNB-75. Described as above. Conditions: Homo sapiens; for inhibition at 10 µM: SNB-75 (CNS cancer), read-out: GI%; for GI50: SNB-75, CNS cancer, five-dose. In kind it is cell-based, human. The method in brief: as §1
Another experiment concerns SN12C. The experiment is described as above. In kind it is cell-based, human. Particulars: Homo sapiens; for GI50: SN12C, Renal cancer, five-dose; for inhibition at 10 µM: SN12C (Renal cancer), read-out: GI%. The method in brief: as §1
The test system of a further experiment is EKVX. The description is as above. Conditions: Homo sapiens; for inhibition at 10 µM: EKVX (Non-small cell lung cancer), read-out: GI%; for GI50: EKVX, Non-small cell lung cancer, five-dose. In kind it is cell-based, human. In outline: as §1
The next experiment deals with T1, VEGFR-2 (Homo sapiens, UniProt P35968).
T1 construct: purchased BPS Biosciences 40325
The experiment is described as follows: VEGFR-2 kinase assay kit (BPS), Kinase-Glo Max luminescence. Type of experiment: biochemical. Particulars: VEGFR-2, single dose 10 µM, duplicate, mean ± SD.

Experiment [1] deals with NCI panel of 60 tumor cell lines. The experiment is described as follows: NCI SRB growth inhibition, whole panel mean (single dose 10 µM / five-dose). Conditions: Homo sapiens; for GI50: mean over NCI cancer cell lines, five-dose. Type of experiment: cell-based, human. The method in brief:
as §1

Where [2] appears, read: mean over NCI 60 cell lines, > 100% = lethal effect, read-out: mean growth inhibition % (GI%).
Setting [3] is: mean over NCI panel of 60 tumor cell lines, read-out: Mean growth inhibition %.

Like-named read-outs stand apart in the source and are kept apart here. A value given as a limit tells only on which side of the number the result lay.

T1 sequence (P35968 20-1356): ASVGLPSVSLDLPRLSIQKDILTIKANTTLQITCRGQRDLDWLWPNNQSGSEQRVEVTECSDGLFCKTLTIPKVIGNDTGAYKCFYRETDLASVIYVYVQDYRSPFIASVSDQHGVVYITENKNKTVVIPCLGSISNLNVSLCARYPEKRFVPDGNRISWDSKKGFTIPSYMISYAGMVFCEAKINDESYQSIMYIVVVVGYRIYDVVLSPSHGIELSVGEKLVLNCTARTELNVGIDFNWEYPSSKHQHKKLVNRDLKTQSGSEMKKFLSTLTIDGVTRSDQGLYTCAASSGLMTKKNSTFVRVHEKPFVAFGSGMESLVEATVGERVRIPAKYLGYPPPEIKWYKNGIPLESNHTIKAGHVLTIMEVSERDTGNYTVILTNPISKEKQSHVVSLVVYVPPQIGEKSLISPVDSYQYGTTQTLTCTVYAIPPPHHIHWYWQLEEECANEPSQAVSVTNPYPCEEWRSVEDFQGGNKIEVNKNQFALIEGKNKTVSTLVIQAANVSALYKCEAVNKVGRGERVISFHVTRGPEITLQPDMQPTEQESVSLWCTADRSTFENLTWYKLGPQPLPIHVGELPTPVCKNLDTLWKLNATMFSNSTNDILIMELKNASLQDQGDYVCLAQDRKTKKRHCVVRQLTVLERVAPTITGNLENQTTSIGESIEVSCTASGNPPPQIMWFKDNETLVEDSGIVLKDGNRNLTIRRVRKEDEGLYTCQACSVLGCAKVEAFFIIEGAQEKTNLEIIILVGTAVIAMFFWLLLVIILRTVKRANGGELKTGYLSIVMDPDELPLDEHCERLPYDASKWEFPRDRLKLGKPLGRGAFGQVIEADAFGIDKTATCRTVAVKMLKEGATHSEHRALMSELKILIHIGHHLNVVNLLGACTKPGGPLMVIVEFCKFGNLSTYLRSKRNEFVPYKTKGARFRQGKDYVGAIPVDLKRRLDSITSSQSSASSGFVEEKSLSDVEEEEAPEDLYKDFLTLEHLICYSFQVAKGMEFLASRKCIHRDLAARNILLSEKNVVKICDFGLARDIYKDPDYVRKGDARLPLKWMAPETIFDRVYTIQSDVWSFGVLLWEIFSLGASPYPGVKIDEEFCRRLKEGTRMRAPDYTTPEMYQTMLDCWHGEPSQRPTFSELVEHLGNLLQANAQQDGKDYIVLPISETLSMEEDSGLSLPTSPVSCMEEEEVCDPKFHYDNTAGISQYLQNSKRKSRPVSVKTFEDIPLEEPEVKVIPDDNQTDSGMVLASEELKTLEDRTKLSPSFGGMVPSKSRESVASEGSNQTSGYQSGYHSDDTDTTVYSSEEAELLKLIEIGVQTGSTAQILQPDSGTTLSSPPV

Take `COc1ccc(-c2nc3cc(C(=O)NN=Cc4cccc(OC)c4O)ccc3[nH]2)cc1` [8k, N'-(2-Hydroxy-3-methoxybenzylidene)-2-(4-methoxyphenyl)-1H-benzo[d]imidazole-5-carbohydrazide]: the inhibition at 10 µM with COLO 205 was > 100%; in the experiment with DU-145 it was 85.1%; in the experiment on MDA-MB-468, > 100%; in the experiment on KM12, > 100%; with HOP-92, 70.4%; in the experiment with U251, 97.3%. Further, the inhibition at 10 µM with NCI-H460 is > 100%; in the experiment on NCI-H522 it was > 100%; in the experiment on SNB-75, 91%; with EKVX, 98.1%; on VEGFR-2, 69.5 ± 4.37%; in [1] (setting [2]), > 100%. In addition, in experiment [1] (setting [3]), the inhibition at 10 µM is > 100%. Besides, the GI50 (as a rule, the concentration at which growth is held to half of that of the control) is 3.94 µM in the experiment with COLO 205; 5.06 µM in the experiment on DU-145; 1.95 µM in the experiment on MDA-MB-468; 2.45 µM in the experiment on KM12; 2.17 µM in the experiment on U251; 3.27 µM with NCI-H460. Moreover, the 50% growth inhibitory concentration (GI50) was 2.98 µM in the experiment on NCI-H522; 3.05 µM in the experiment on SNB-75; 3.81 µM with SN12C; 2.3 µM in the experiment on EKVX; 7.7 µM in experiment [1].

With `COc1cccc(C=NNC(=O)c2ccc3[nH]c(-c4ccc(Cl)cc4)nc3c2)c1` [8q, 2-(4-Chlorophenyl)-N'-(3-methoxybenzylidene)-1H-benzo[d]imidazole-5-carbohydrazide], the inhibition at 10 µM in the experiment on COLO 205, in the experiment on DU-145, with MDA-MB-468, with KM12, in the experiment on HOP-92 and with U251 was > 100% throughout. In addition, the inhibition at 10 µM with NCI-H460 was > 100%; with NCI-H522 it was > 100%; with SNB-75 it was > 100%; in the experiment with EKVX it was > 100%; against VEGFR-2 it was 21.5 ± 1.54%; in experiment [1] (setting [2]) it was > 100%. Further, in experiment [1] (setting [3]), the inhibition at 10 µM was > 100%. Besides, the GI50 was 4.02 µM with COLO 205; 2.04 µM in the experiment on DU-145; 2.97 µM with MDA-MB-468; 4.42 µM with KM12; 2.03 µM in the experiment on U251; 3.34 µM in the experiment with NCI-H460. Besides, the GI50 with NCI-H522 amounted to 2.26 µM; in the experiment with SNB-75, 5.69 µM; in the experiment with SN12C, 2.22 µM; in the experiment on EKVX it was 3.52 µM; in [1] it was 5.4 µM.

Take `COc1cccc(C=NNC(=O)c2ccc3[nH]c(-c4ccccc4)nc3c2)c1O` [8d, N'-(2-hydroxy-3-methoxybenzylidene)-2-phenyl-1H-benzo[d]imidazole-5-carbohydrazide]: the 50% growth inhibitory concentration (GI50) with COLO 205 was determined as 2.34 µM; in the experiment on DU-145, 3.05 µM; in the experiment with MDA-MB-468 it was 0.89 µM; in the experiment on KM12, 2.58 µM; with HOP-92, 1.58 µM; in the experiment on U251, 0.76 µM. Besides, the GI50 is 2.63 µM in the experiment with NCI-H460; 1.97 µM in the experiment with NCI-H522; 2.08 µM in the experiment on SN12C; 1.86 µM in the experiment on EKVX; 2.62 µM in experiment [1]. In addition, the inhibition at 10 µM was 79.7% with DU-145; > 100% in the experiment on MDA-MB-468; > 100% in the experiment on KM12; 68.4% in the experiment on HOP-92; 99.9% with U251; 86.4% in the experiment with NCI-H460. Besides, the inhibition at 10 µM in the experiment with NCI-H522 was > 100%; in the experiment with SNB-75, 99.2%; in the experiment with SN12C, 91.5%; with EKVX it was 87.6%; against VEGFR-2, 53.8 ± 2.62%; in experiment [1] (setting [2]) it was 92.5%. Besides, the inhibition at 10 µM in experiment [1] (setting [3]) stood at 92.5%.

On to `COc1ccc(-c2nc3cc(C(=O)NN=Cc4ccccc4O)ccc3[nH]2)cc1` [8h, N'-(2-Hydroxybenzylidene)-2-(4-methoxyphenyl)-1H-benzo[d]imidazole-5-carbohydrazide], for which the inhibition at 10 µM in the experiment with COLO 205, in the experiment on DU-145, with MDA-MB-468, in the experiment on KM12, with HOP-92 and with U251 was > 100% in each case. Also, the inhibition at 10 µM in the experiment with NCI-H460 is > 100%; in the experiment with NCI-H522 it was > 100%; in the experiment on SNB-75, 95.6%; in the experiment with SN12C, > 100%; with EKVX it was 92.2%; against VEGFR-2, 62.9 ± 3.89%. Moreover, the inhibition at 10 µM in experiment [1] (setting [2]) and in [1] (setting [3]) was > 100% each time. The GI50 in the experiment on COLO 205 was 2.9 µM; with DU-145, 2.33 µM; in the experiment on MDA-MB-468, 2.98 µM; in the experiment with KM12 it was 4.24 µM; with HOP-92, 2.83 µM; in the experiment with U251, 1.64 µM. Further, the 50% growth inhibitory concentration (GI50) in the experiment on NCI-H460 worked out at 1.87 µM; in the experiment on NCI-H522, 1.54 µM; with SNB-75, 0.39 µM; in the experiment with SN12C it was 4.99 µM; with EKVX it was 3.24 µM; in [1] it was 2.98 µM.

As to `COc1ccc(-c2nc3cc(C(=O)NN=Cc4cc(OC)c(OC)c(OC)c4)ccc3[nH]2)cc1` [8n, 2-(4-Methoxyphenyl)-N'-(3,4,5-trimethoxybenzylidene)-1H-benzo[d]imidazole-5-carbohydrazide], the inhibition at 10 µM in the experiment on COLO 205 was 33.7%; with DU-145, < 5%; with MDA-MB-468, < 5%; in the experiment with KM12, 13.8%; in the experiment on HOP-92, < 5%; with U251 it was 15.3%. The inhibition at 10 µM with NCI-H460 was < 5%; in the experiment with NCI-H522 it was 96.2%; in the experiment with SNB-75 it was < 5%; in the experiment on SN12C, 9.66%; in the experiment on EKVX, < 5%; on VEGFR-2, 20.8 ± 1.78%. Further, the inhibition at 10 µM in experiment [1] (setting [2]) and in experiment [1] (setting [3]) was 13.6% in each case.

For `COc1cccc(C=NNC(=O)c2ccc3[nH]c(-c4ccc(Cl)cc4)nc3c2)c1O` [8r, 2-(4-Chlorophenyl)-N'-(2-hydroxy-3-methoxybenzylidene)-1H-benzo[d]imidazole-5-carbohydrazide], the inhibition at 10 µM with COLO 205, in the experiment on DU-145, with MDA-MB-468, in the experiment on KM12, in the experiment on HOP-92 and in the experiment on U251 was > 100% throughout. The inhibition at 10 µM in the experiment with NCI-H460 is > 100%; in the experiment with NCI-H522, > 100%; in the experiment with SNB-75, > 100%; in the experiment on EKVX, > 100%; on VEGFR-2, 25.7 ± 1.87%; in [1] (setting [2]), > 100%. Further, in [1] (setting [3]), the inhibition at 10 µM is > 100%. For the same molecule, the GI50 in the experiment with COLO 205 worked out at 2.33 µM; in the experiment with DU-145, 1.99 µM; in the experiment with MDA-MB-468, 1.44 µM; in the experiment with KM12 it was 1.66 µM; with HOP-92, 1.25 µM; with U251, 1.5 µM. The GI50 worked out at 1.35 µM in the experiment with NCI-H460; 1.17 µM in the experiment with NCI-H522; 1.72 µM in the experiment with SN12C; 4.56 µM with EKVX; 3.39 µM in experiment [1].

These data come from PMC10893631, “Receptor-based pharmacophore modeling, molecular docking, synthesis and biological evaluation of novel VEGFR-2, FGFR-1, and BRAF multi-kinase inhibitors” (BMC Chemistry, 2024).
